Marks after values point to notes of the source that are not given here.

For one experiment, the system named is pancreatic cancer cells PANC-1. Description: Tumor inhibition in nude mice bearing pancreatic cancer cells PANC-1. It is filed as in vivo. The note with it: Table 3; avg tumor volume 105 mm^3; 100 μl/mouse every 3 days x3; next day after last dose. Here is the method:
(§1) They were injected intraperitoneally and intratumorally.
After anatomy, the tumor weight was measured and the tumor inhibition rate was calculated.
As for `NCCCC[C@H](N)C(=O)O` [20% lysine, L-lysine], the “Tumor inhibition rate of intraperitoneal injection” value was determined as 53% and the “Tumor inhibition rate of intratumoral injection” value came to 1%.

Staying with this experiment, now noted: Table 4; avg tumor volume 136 mm^3; intratumoral every 3 days x3, ≤150 μl; next day.
Molecule `N[C@@H](CCC(=O)N[C@@H](CS)C(=O)NCC(=O)O)C(=O)O` [3% glutathione, Reduced glutathione] displayed a Tumor inhibition rate of 12%.

`N[C@@H](CCC(=O)N[C@@H](CS)C(=O)NCC(=O)O)C(=O)O` [12.5% glutathione, Reduced glutathione] showed a Tumor inhibition rate of 66%.

In turn, `N=C(N)NCCC[C@H](N)C(=O)O` [7.5% arginine, L-arginine] returned a Tumor inhibition rate of 21%.

As to `N=C(N)NCCC[C@H](N)C(=O)O` [5% arginine, L-arginine], the Tumor inhibition rate came out at 16%.

For the molecule `N=C(N)NCCC[C@H](N)C(=O)O` [2% arginine, L-arginine], the Tumor inhibition rate was determined as 15%.

`N[C@@H](CCC(=O)N[C@@H](CS)C(=O)NCC(=O)O)C(=O)O` [2% glutathione, Reduced glutathione] registered a Tumor inhibition rate of 13%.

On to `N=C(N)NCCC[C@H](N)C(=O)O` [1% arginine, L-arginine], for which the Tumor inhibition rate came out at 17%.

Molecule `N=C(N)NCCC[C@H](N)C(=O)O` [3% arginine, L-arginine] yielded a Tumor inhibition rate of 19%.

In turn, `N[C@@H](CCC(=O)N[C@@H](CS)C(=O)NCC(=O)O)C(=O)O` [1% glutathione, Reduced glutathione] had a Tumor inhibition rate of 11%.

As to `N[C@@H](CCC(=O)N[C@@H](CS)C(=O)NCC(=O)O)C(=O)O` [7.5% glutathione, Reduced glutathione], the Tumor inhibition rate was 45%.

`N[C@@H](CCC(=O)N[C@@H](CS)C(=O)NCC(=O)O)C(=O)O` [5% glutathione, Reduced glutathione] yielded a Tumor inhibition rate of 32%.

The experiment is the same for the next values; noted with them: Table 4; avg tumor volume 136 mm^3; intratumoral every 3 days x3, ≤150 μl; next day; hydrochloride.
As to `Cl.N[C@@H](CCC(=O)O)C(=O)O` [0.15% glutamic hydrochloride, L-glutamic hydrochloride], the Tumor inhibition rate turned out to be 16%.

In turn, `Cl.N[C@@H](CCC(=O)O)C(=O)O` [2% glutamic hydrochloride, L-glutamic hydrochloride] had a Tumor inhibition rate of 49%.

In the case of `Cl.N[C@@H](CCC(=O)O)C(=O)O` [1% glutamic hydrochloride, L-glutamic hydrochloride], the Tumor inhibition rate is given as 18%.

On to `Cl.N[C@@H](CCC(=O)O)C(=O)O` [0.5% glutamic hydrochloride, L-glutamic hydrochloride], for which the Tumor inhibition rate was determined as 11%.

`Cl.N[C@@H](CCC(=O)O)C(=O)O` [5% glutamic hydrochloride, L-glutamic hydrochloride] gave a Tumor inhibition rate of 76%.

As for `Cl.N[C@@H](CCC(=O)O)C(=O)O` [0.25% glutamic hydrochloride, L-glutamic hydrochloride], the Tumor inhibition rate stood at 13%.

A further experiment relates to human liver cancer cells (HepG2). Description: Tumor weight and tumor inhibition in nude mice bearing HepG2. The format is in vivo. The note with it: Table 6; avg tumor volume 153 mm^3; ≤120 μl/mouse every 3 days x3; 5th day after last dose. Here is the method: One of the core characteristics of tumors is heterogeneity. […] The corresponding negative control was normal saline.
as §1
The negative control group was given normal saline. The compositions of the study drug are as shown in the table below: 4 types and concentrations of amino acid based nutrient single drugs (X % amino acid based nutrients), 18 types and concentrations of ineffective absorption drugs (Y % ineffective absorption drugs), 24 compositions comprising various types and concentrations of amino acid based nutrients and ineffectively absorption drugs (X % amino acid based nutrients/Y % ineffectively absorption drugs).
The negative control was normal saline. The compositions of 16 study drugs, as shown in the table below, comprise: a 5-fluorouracil single drug of 4 varying concentrations (X % 5-fluorouracil), and an amino acid based nutrient with 5 varying concentrations (Y % amino acid based nutrient), 7 compositions consisting of 5-fluorouracil of varying concentrations and an amino acid based nutrient of varying concentrations (X % 5-fluorouracil/Y % amino acid based nutrient). […] The dose at each time was: 5-fluorouracil 50 mg/kg, glutathione ≤1 g/kg, and an injection volume was ≤150 μl/mouse.
The negative control was normal saline, the positive control was 1% 5-fluorouracil, and the study drug was 1% methylene blue/10% amino acid based nutrient composition (the type of the amino acid based nutrient is variable). The amino acid based nutrients in the compositions used in study groups 1-13 were: arginine, glycine, cysteine hydrochloride, valine, threonine, proline, histidine hydrochloride, phenylalanine, lysine, leucine, alanine, glutathione, serine, and the study drug used in the study group 14 was 1% methylene blue/5% arginine/5% glycine.
With `CC/C=C\C/C=C\C/C=C\C/C=C\C/C=C\C/C=C\CCC(=O)O` [5% DHA, Docosahexaenoic acid (DHA)], the “Intratumoral injection Tumor inhibition rate” value was found to be 27%, the “Intratumoral injection Tumor weight” value is on record as 1.69 ± 0.33 g and the “Tumor inhibition rate of intraperitoneal injection” value is 4%.

As for `CC(=O)O` [3.5% acetic acid, acetic acid], the “Intratumoral injection Tumor inhibition rate” value amounted to 64%, the “Intratumoral injection Tumor weight” value is 0.84 ± 0.23 g and the “Tumor inhibition rate of intraperitoneal injection” value was determined as 6%.

As for `CN(C)c1ccc2nc3ccc(=[N+](C)C)cc-3sc2c1` [0.7% methylene blue, Methylene blue], the “Intratumoral injection Tumor inhibition rate” value was 13%, the “Intratumoral injection Tumor weight” value worked out at 2.02 ± 0.31 g and the “Tumor inhibition rate of intraperitoneal injection” value amounted to 2%.

The same experiment, now with this note: Table 11; avg tumor volume 164 mm^3; intratumoral every 3 days x3, ≤150 μl; fifth day after last dose.
As to `CC(=O)O` [2% acetic acid, acetic acid], the Tumor inhibition rate entry is recorded as “(46%)”.

As to `Cl` [0.5% hydrochloric acid, hydrochloric acid], the Tumor inhibition rate result was “(53%)”.

In the case of `O=C1OC2(c3cc(I)c(O)c(I)c3Oc3c2cc(I)c(O)c3I)c2c(Cl)c(Cl)c(Cl)c(Cl)c21` [5% Bengal Red, Bengal Red], the Tumor inhibition rate entry is “(46%)”.

For `CN(C)c1ccc2nc3ccc(=[N+](C)C)cc-3sc2c1` [0.35% methylene blue, Methylene blue], the Tumor inhibition rate entry is “(18%)”.

In the case of `CC/C=C\C/C=C\C/C=C\C/C=C\C/C=C\C/C=C\CCC(=O)O` [5% DHA, Docosahexaenoic acid (DHA)], the Tumor inhibition rate entry was “(28%)”.

As for `CN(C)c1ccc2nc3ccc(=[N+](C)C)cc-3sc2c1` [0.25% methylene blue, Methylene blue], the Tumor inhibition rate entry was “(11%)”.

In the case of `CC/C=C\C/C=C\C/C=C\C/C=C\C/C=C\C/C=C\CCC(=O)O` [3% DHA, Docosahexaenoic acid (DHA)], the Tumor inhibition rate result was “(21%)”.

With `O=C1OC2(c3cc(I)c(O)c(I)c3Oc3c2cc(I)c(O)c3I)c2c(Cl)c(Cl)c(Cl)c(Cl)c21` [10% Bengal Red, Bengal Red], the Tumor inhibition rate entry is “(63%)”.

In the case of `N[C@@H](CCC(=O)N[C@@H](CS)C(=O)NCC(=O)O)C(=O)O` [2.5% glutathione, Reduced glutathione], the Tumor inhibition rate result is recorded as “(12%)*”.

As to `Cl` [0.25% hydrochloric acid, hydrochloric acid], the Tumor inhibition rate entry is “(31%)”.

With `Cl` [2% hydrochloric acid, hydrochloric acid], the Tumor inhibition rate result is “(83%)”.

For `CC(=O)O` [20% acetic acid, acetic acid], the Tumor inhibition rate result is given as “(92%)**”.

Turning to `Cl` [1% hydrochloric acid, hydrochloric acid], the Tumor inhibition rate result was “(68%)”.

For `CC(=O)O` [1% acetic acid, acetic acid], the Tumor inhibition rate entry is “(26%)”.

With `N[C@@H](CCC(=O)N[C@@H](CS)C(=O)NCC(=O)O)C(=O)O` [5% glutathione, Reduced glutathione], the Tumor inhibition rate entry is given as “(31%)”.

Still in this experiment, the particulars now being: Table 16; avg tumor volume 169 mm^3; intratumoral every 3 days x3, ≤150 μl/mouse; 5th day.
Turning to `O=c1[nH]cc(F)c(=O)[nH]1` [0.75% 5-fluorouracil, 5-fluorouracil], the Tumor inhibition rate result is “(63%)”.

With `N[C@@H](CCC(=O)N[C@@H](CS)C(=O)NCC(=O)O)C(=O)O` [2.5% glutathione, Reduced glutathione], the Tumor inhibition rate result was “(12%)”.

For the molecule `O=c1[nH]cc(F)c(=O)[nH]1` [1.5% 5-fluorouracil, 5-fluorouracil], the Tumor inhibition rate result is recorded as “(69%)”.

Consider `O=c1[nH]cc(F)c(=O)[nH]1` [0.5% 5-fluorouracil, 5-fluorouracil], for which the Tumor inhibition rate entry is given as “(59%)*”.

On to `N[C@@H](CCC(=O)N[C@@H](CS)C(=O)NCC(=O)O)C(=O)O` [5% glutathione, Reduced glutathione], for which the Tumor inhibition rate result is reported as “(32%)”.

Another experiment has as its system breast cancer 4T1 cells. In words: Tumor weight and tumor inhibition in BALB/c mice bearing breast cancer 4T1 cells.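 Further: subcutaneous grafts in the right axilla, tumors excised and weighed after euthanasia, inhibition rate derived from group mean tumor weight versus the negative control group.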 The note with it: Table 10; avg tumor volume 336 mm^3; 150 μl/mouse every 3 days x3; 5th day after last dose.
Procedure: In the following examples, unless otherwise specified, animal tests of subcutaneous transplantation tumors were performed in accordance with test guidelines issued by a drug administration authority. […] The subcutaneous transplantation was carried out according to a conventional method for subcutaneous inoculation of tumor cells. […] Items to be observed, measured and analyzed in the experiments included general status, body weight, food intake, tumor volume, tumor weight, thymus weight, spleen weight, and the like.
The tumor growth inhibition rate (abbreviated as tumor inhibition rate in the present invention) is calculated through the following equation:
wherein TW is an average tumor weight of a study group; CW is an average tumor weight of a negative control group.
The effects of the co-use of drugs (including efficacy and safety) can theoretically be based on the judgment of q:
q=actual combined effect/theoretical expected effect of simple addition.
When q=1, the actual combined effect meets the theoretical expectation, showing an additive effect; when q<1, the actual combined effect is weaker than the theoretical expectation, showing an antagonistic effect; and when q>1, the actual combined effect exceeds the theoretical expectation, showing a synergic effect. Unless otherwise specified, single-use efficacy of A or B (denoted as EA and EB respectively) and the actual combined efficacy of A/B (denoted as EA+B) are both tumor inhibition rates.
In one experiment, the test animal was a BALB/c mouse, the modeling cells were breast cancer 4T1 cells, and the transplantation tumor was modeled at 1×10^6 cells/mouse under the skin of the animal's right axilla. […] The experimental groups were divided into 1 negative control group (group 0) and 13 study groups (groups 1-13). They were all injected intratumorally. […] Each group was administered once every 3 days for a total of 3 times, each time at an injection dose of 150 μl//mouse. During the administration, general state of the animals and the degree of necrosis of normal tissues around the tumor after the administration were observed. On the 5th day after the administration was ended, the animals were euthanized, and the tumor weight was measured after anatomy to the animals. The tumor inhibition rate was calculated from the negative control group of each administration mode.
In another experiment, the test animal was a BALB/c mouse, the modeling cells were breast cancer 4T1 cells, and the transplantation tumor was modeled at 1×10^6 cells/mouse under the skin of the animal's right axilla. […] Each group was administered by intratumoral injection once every 3 days for a total of 3 times, each time at an injection dose of 150 μl/mouse. On the 5th day after the administration was ended, the animals were euthanized, and the tumor weight was measured after anatomy to the animals. The tumor inhibition rate was calculated from the negative control group.
In another experiment, the test animal was BALB/c mice, the modeling cells were breast cancer 4T1 cells, and the transplantation tumor was modeled at 1×10^6 cells/mouse under the skin of the animal's right axilla. […] Each group was administered by intratumoral injection once every 3 days for a total of 3 times, each time at an injection dose of 150 μl/mouse. On the 5th day after the administration was ended, the animals were euthanized, and the tumor weight was measured after anatomy to the animals. The tumor inhibition rate was calculated from the negative control group.
In another experiment, the test animal was a BALB/c mouse, the modeling cells were breast cancer 4T1 cells, and the transplantation tumor under the skin of the animal's right axilla was modeled at 1×10^6 cells/mouse.
With `CC(=O)O` [10% acetic acid, acetic acid], the “Intratumoral injection Tumor inhibition rate” value amounted to 53% and the “Intratumoral injection Tumor weight” value is 0.60 ± 0.21 g.

Staying with this experiment, now noted: Table 12; avg tumor volume 317 mm^3; intratumoral 150 μl/mouse every 3 days x3; 5th day.
As for `[Na+].[OH-]` [0.5% NaOH, sodium hydroxide], the Tumor inhibition rate is reported as 31% and the “Tumor weight (x ± s)” value was 1.54 g.

Take `[Na+].[OH-]` [7% NaOH, sodium hydroxide]: the Tumor inhibition rate was found to be 75% and the “Tumor weight (x ± s)” value amounted to 0.59 g.

As to `N=C(N)NCCC[C@H](N)C(=O)O` [4% arginine, L-arginine], the Tumor inhibition rate turned out to be 2% and the “Tumor weight (x ± s)” value is 2.31 g.

Staying with this experiment, now noted: Table 14; avg tumor volume 325 mm^3; intratumoral 150 μl/mouse every 3 days x3; 5th day.
Regarding `[Cl-].[K+]` [2% KCl, potassium chloride], the Tumor inhibition rate came out at 11% and the “Tumor weight (x ± s)” value amounted to 2.19 ± 0.31 g.

The experiment is the same for the next values; noted with them: Table 17; avg tumor volume 317 mm^3; intratumoral 150 μl/mouse every 3 days x3; fifth day.
With `N=C(N)NCCC[C@H](N)C(=O)O` [5% arginine, L-arginine], the Tumor inhibition rate amounted to 10% and the Tumor weight came to 1.40 ± 0.26 g.

On to `N=C(N)NCCC[C@H](N)C(=O)O` [2.5% arginine, L-arginine], for which the Tumor inhibition rate came to 5% and the Tumor weight is recorded as 1.48 ± 0.32 g.

The values are drawn from patent US20220151935A1, “USE OF AMINO ACID BASED NUTRIENTS AND PHARMACEUTICAL COMPOSITION CONTAINING THE SAME” (priority 2018, published 2022).
